# Measurements from ChEMBL document CHEMBL1201862, “PubChem BioAssay data set” (2004).
# Activity calls are given as the source filed them.
# Columns and labels:
# [1] = molecular target: Cytochrome P450 2D6 (Homo sapiens, UniProt P10635);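 also: CYP2D6 member of a cytochrome P450 panel assay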
# [2] = molecular target: Cytochrome P450 3A4 (Homo sapiens, UniProt P08684);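 also: CYP3A4 tested as one member of a cytochrome P450 panel screen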
# [3] = molecular target: Cytochrome P450 2C19 (Homo sapiens, UniProt P33261); assay: Cytochrome panel assay with activity outcomes. Panel member name: p450-cyp2c19 Compounds with AC50 equal or less than 10 uM are considered active; type: functional
# [4] = HEp-2 cell cytotoxicity, dose response, cytotoxicity control for RSV inhibitor project, HTS (AID 2410); type: functional; conditions: human respiratory syncytial virus
# [5] = microbe, parasite or virus in culture; type: functional; conditions: Mycobacterium tuberculosis
# [6] = Luminescence Cell-Based Dose Response HTS to Identify Inhibitors of 5'UTR Stem-Loop Driven Prion Protein mRNA Translation in H4 Neuroglioblastoma Cells. [Related pubchem assays: 1827 (Project Summary), 1813 (Primary HTS)]; type: functional
# [7] = inhibitors of SNCA 5'UTR-driven reporter translation, confirmation, H4 neuroglioma cells, luminescence (AID 1988); type: functional, cell-based
# [8] = inhibitors of firefly luciferase expression or activity, dose response, H4 neuroglioma cells, luminescence (AID 1990); type: functional, cell-based
# [9] = system: INS1; assay: beta cell apoptosis inhibitors, cytokine rescue, dose response, luminescence, retest (AID 449756); type: functional, cell-based; conditions: Rattus norvegicus;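 also: cell death triggered by IL-1 beta plus TNF-alpha plus IFN-gamma mixture; protective hits raise ATP signal compared with cytokine alone wells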
# [10] = NIH-3T3 fibroblast cytotoxicity, dose response, cytotoxicity control, cell-based, fluorescence, Alamar Blue, secondary assay (AID 2327); type: functional;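 also: NIH-3T3 mouse fibroblasts cultured with fluconazole at 8 µg/mL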
# [11] = C. albicans growth with fluconazole, confirmation, fluorescence, retest (AID 2467); type: functional, cell-based
# [12] = growth suppression of beta-catenin-knockout colon cells, dose response, cell-based, HCT116, human colon tumor (AID 1045); type: functional;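 also: HCT116 colon tumor cells with beta catenin knocked out; cells exposed to compound for 60 hours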
# [13] = Luminescence Cell-Based Dose Response HTS to Identify Activators of Luciferase Translation or Activity in H4 […] Cells. [Related pubchem assays: 1829 (Project Summary), 1814 (Primary HTS)]; type: functional
# [14] = system: H4; assay: Luminescence Cell-Based Dose Response HTS to Identify Activators of 5'UTR Stem-Loop Driven Prion Protein mRNA Translation in H4 Neuroglioblastoma Cells. [Related pubchem assays: 1829 (Project Summary), 1814 (Primary HTS)]; type: functional; conditions: Homo sapiens
# [15] = Luminescence Cell-Based Dose Retest to Confirm Inhibitors of Cancer Stem Cells. [Related pubchem assays (depositor defined):AID2717, AID2721]; type: functional; conditions: Homo sapiens
# [16] = molecular target: T1, Cytochrome P450 1A2 (Homo sapiens, UniProt P05177);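 also: PubChem cytochrome P450 panel assay, CYP1A2 panel member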
# T1 sequence (P05177 whole entry): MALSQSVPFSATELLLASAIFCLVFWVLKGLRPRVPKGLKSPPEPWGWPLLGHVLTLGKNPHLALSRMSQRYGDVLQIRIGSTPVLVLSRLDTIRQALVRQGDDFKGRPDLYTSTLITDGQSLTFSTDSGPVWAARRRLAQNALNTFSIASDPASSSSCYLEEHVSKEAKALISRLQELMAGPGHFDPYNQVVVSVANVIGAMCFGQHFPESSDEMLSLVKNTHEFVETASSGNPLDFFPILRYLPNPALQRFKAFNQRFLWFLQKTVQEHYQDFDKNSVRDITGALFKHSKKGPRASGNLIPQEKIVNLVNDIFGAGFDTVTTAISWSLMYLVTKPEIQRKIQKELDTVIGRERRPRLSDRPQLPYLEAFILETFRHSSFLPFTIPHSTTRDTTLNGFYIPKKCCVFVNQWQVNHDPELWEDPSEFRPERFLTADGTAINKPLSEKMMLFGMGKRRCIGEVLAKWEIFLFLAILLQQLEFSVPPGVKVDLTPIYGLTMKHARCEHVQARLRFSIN
# [17] = molecular target: T2, Streptokinase A (Streptococcus pyogenes serotype M1, UniProt P10520); assay: S. pyogenes streptokinase expression inhibitors, potency, dose response, plasminogen activation absorbance, OD405 (AID 1914); type: functional, Streptococcus pyogenes M1 GAS;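 also: secreted streptokinase activity via plasminogen activation per viability signal from cell pellet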
# T2 sequence (P10520 whole entry): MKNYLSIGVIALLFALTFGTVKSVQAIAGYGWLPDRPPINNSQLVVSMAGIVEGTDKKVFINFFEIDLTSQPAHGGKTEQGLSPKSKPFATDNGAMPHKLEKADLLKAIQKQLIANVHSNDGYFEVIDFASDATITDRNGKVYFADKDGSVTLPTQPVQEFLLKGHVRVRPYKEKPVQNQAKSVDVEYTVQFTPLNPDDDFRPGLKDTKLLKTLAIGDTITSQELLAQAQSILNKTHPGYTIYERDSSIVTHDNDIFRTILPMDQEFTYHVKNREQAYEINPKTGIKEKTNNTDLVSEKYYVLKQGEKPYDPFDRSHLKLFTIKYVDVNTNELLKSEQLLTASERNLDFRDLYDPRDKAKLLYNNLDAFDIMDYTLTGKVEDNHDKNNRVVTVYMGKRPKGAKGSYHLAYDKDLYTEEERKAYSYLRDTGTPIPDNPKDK
# [18] = system: Streptococcus sp. 'group A'; assay: growth inhibition of control SK(-) GAS strain, dose response, counter-screen for streptokinase expression inhibitor project, luminescence, kanamycin, BacTiterGlo, confirmation (AID 1900); type: functional, organism-based
# [19] = system: Streptococcus; assay: Group A Streptococcus viability loss, dose response, counter-screen for streptokinase expression inhibitor project, luminescence, BacTiterGlo (AID 1915); type: functional, organism-based;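 also: potency for reduction of bacterial viability or growth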
# [20] = molecular target: Paired box protein Pax-8 (Homo sapiens, UniProt Q06710); assay: inhibitors of PAX8-driven TPO luciferase reporter, dose response, RMG-I cells, cherry-pick (AID 687027); type: functional, cell-based;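 also: luciferase reporter driven by Pax8 target thyroperoxidase promoter measured by SteadyGlo luminescence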
# Paired box protein Pax-8, sequence (Q06710 whole entry): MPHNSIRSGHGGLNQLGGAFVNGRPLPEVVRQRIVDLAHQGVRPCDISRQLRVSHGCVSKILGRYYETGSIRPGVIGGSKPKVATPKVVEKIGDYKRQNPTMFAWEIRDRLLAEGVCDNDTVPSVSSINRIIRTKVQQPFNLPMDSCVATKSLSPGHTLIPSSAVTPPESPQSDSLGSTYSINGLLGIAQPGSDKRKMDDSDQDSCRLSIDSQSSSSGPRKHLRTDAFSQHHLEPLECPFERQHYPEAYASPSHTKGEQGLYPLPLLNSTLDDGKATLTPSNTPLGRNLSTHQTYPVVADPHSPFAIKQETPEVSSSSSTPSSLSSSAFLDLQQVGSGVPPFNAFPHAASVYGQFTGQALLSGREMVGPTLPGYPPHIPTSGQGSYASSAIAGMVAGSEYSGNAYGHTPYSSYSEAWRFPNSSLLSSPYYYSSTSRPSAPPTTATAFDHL
# Cytochrome P450 2D6, sequence (P10635 whole entry): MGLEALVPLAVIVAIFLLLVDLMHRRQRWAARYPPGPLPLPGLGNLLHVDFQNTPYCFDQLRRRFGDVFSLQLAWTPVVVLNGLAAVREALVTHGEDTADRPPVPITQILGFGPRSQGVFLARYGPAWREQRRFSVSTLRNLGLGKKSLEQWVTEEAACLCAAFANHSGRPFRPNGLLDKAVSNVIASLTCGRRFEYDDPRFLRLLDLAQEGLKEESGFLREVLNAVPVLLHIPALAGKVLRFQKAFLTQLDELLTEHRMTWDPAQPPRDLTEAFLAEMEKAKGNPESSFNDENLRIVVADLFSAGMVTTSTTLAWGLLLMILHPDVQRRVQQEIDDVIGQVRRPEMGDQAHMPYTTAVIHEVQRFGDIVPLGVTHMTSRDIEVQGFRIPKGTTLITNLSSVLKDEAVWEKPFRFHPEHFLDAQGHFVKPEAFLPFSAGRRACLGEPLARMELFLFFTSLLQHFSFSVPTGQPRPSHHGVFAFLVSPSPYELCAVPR
# Cytochrome P450 2C19, sequence (P33261 whole entry): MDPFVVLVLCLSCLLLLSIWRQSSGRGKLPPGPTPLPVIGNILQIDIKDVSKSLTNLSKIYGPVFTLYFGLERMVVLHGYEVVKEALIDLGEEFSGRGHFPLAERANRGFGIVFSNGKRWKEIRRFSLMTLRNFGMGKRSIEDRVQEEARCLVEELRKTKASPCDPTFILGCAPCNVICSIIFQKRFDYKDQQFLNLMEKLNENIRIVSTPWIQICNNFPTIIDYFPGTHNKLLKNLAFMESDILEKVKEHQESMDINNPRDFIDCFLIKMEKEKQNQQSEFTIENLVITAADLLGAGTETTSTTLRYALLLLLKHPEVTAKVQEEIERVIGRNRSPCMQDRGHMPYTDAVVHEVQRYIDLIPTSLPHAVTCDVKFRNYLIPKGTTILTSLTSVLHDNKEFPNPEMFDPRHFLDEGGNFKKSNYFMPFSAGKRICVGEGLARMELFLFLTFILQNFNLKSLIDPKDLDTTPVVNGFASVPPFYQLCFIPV
# Cytochrome P450 3A4, sequence (P08684 whole entry): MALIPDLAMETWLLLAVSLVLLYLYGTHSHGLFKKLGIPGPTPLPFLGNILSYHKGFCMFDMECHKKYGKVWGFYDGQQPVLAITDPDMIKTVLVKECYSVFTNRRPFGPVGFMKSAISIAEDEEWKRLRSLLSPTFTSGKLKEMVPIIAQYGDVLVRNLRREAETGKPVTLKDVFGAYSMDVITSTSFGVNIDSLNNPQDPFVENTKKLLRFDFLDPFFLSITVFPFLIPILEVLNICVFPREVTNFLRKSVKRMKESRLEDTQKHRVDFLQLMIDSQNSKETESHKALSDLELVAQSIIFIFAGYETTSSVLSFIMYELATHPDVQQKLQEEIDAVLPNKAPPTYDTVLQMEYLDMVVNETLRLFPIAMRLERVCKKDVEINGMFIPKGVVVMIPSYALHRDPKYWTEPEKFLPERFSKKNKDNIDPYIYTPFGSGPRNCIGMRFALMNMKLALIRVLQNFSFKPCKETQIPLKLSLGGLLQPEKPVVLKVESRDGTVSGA
smiles,measurement,setting,value
C/C(CCN1CCCCc2nc(C)c(C)cc21)=N\O[C@@H](C)CN1CCCCc2nc(C)c(C)cc21,AC50,[1],5.01 µM (inconclusive)
CN(C)c1nc(-c2ccoc2)nc2ccccc12,AC50,[2],25.1 µM (inconclusive)
same,AC50,[1],39.8 µM (inconclusive)
same,AC50,[3]; read-out: AC50,31.6 µM (inconclusive)
Cc1ccc(CSCc2ccc(C(=O)NCCC(C)C)o2)cc1,CC50,[4],20.2 µM (active)
CC1CCc2c(sc3ncnc(NCCCOC(C)C)c23)C1 (stereo not drawn),CC50,[5],> 40 µM (active)
Cc1cc(Nc2ccc(Br)cc2)nc(-c2ccccc2O)n1,CC50,[4],31.9 µM (active)
CCOc1ccc(-n2c(SCC(=O)Nc3nccs3)nc3c(c2=O)SCC3)cc1,EC50,[6],19.1 µM (active)
same,EC50,[7],12.8 µM (active)
same,EC50,[8],11.7 µM (active)
CCS(=O)(=O)c1ccc(OC)c(N=Nc2ccc(O)c3ncccc23)c1,AC50,[9],8.44 µM (active)
CCCc1ccc(C(=O)NNc2cccc(C)c2)cc1,EC50,[10],30.2 µM (active)
same,EC50,[11],> 38 µM (not active)
CCC(C)C1C(C#N)=C(N)Oc2[nH]nc(C)c21 (stereo not drawn),EC50,[12],189 µM (active)
CC(=O)NCCNc1nc(-c2ccc(N(C)C)cc2)nc2ccccc12,AC50,[2],10 µM (inconclusive)
same,AC50,[1],20 µM (inconclusive)
Brc1ccccc1-c1nnc2sc(Cc3ccccc3)nn12,EC50,[6],> 120 µM (not active)
same,EC50,[7],> 120 µM (not active)
same,EC50,[8],64.7 µM (active)
COc1ccc(-c2nn(-c3ccccc3)cc2/C=C\C(=O)Nc2ccc(C(=O)O)cc2)cc1,CC50,[4],26.4 µM (active)
Oc1nc2c(-c3cccc(Br)c3)nnn2c2ccccc12,EC50,[13],0.258 µM (active)
same,EC50,[14],18.8 µM (active)
Fc1cccc(CCN2CCNC[C@H]2Cc2cccc3ccccc23)c1,CC50,[5],26.2 µM (active)
Cc1cc(C)cc(NC(=O)NCC(O)COc2ccc([N+](=O)[O-])cc2)c1 (stereo not drawn),CC50,[4],> 50 µM (active)
CSc1ccccc1OCc1cc(C(=O)N2CCc3c(Cl)cccc3C2)no1,AC50,[9],7.1 µM (active)
COc1cc(OC)cc(N(C(=O)C2COc3ccccc3O2)C(C(=O)NC2CCCCC2)c2ccc(O)cc2)c1 (stereo not drawn),EC50,[10],94.7 µM (active)
same,EC50,[11],0.798 µM (inconclusive)
COC(=O)c1cn(S(=O)(=O)c2ccccc2)c2ccccc12,EC50,[6],> 120 µM (not active)
same,EC50,[7],> 120 µM (not active)
same,EC50,[8],> 120 µM (not active)
COc1cc(/C=C/c2nc(O)nc(O)c2[N+](=O)[O-])ccc1OCCC(C)C,AC50,[15],5.94 µM (active)
same,CC50,[4],19.1 µM (active)
Cc1ccc(C(=O)C[n+]2ccc(Cc3ccccc3)cc2)cc1,EC50,[6],13.7 µM (active)
same,EC50,[7],10.5 µM (active)
same,EC50,[8],14.3 µM (active)
CCOC(=O)N1CCN(C(=O)c2cccn3c(=O)c4cc(Cl)ccc4nc23)CC1,AC50,[16],25.1 µM (inconclusive)
NC(CC(=O)Nc1cc(C(F)(F)F)ccc1Cl)=NO,AC50,[2],3.98 µM (inconclusive)
same,AC50,[3],inconclusive
Cc1ccc(C(NC(=O)NC(C)c2ccccc2)C(Cl)(Cl)Cl)cc1F (stereo not drawn),EC50,[6],18.7 µM (active)
same,EC50,[17],7.32 µM (active)
same,EC50,[18],3.25 µM (active)
same,EC50,[19],99.7 µM (active)
same,EC50,[7],> 120 µM (not active)
same,EC50,[8],12 µM (active)
COc1ccc(COC(=O)N/N=C2/C[C@@H](O)[C@@H](O)[C@@H]3[C@H]4C(=O)N(c5ccc(F)cc5F)C(=O)[C@@H]4CC[C@H]23)cc1,AC50,[2],6.31 µM (inconclusive)
COCCCNC(=O)Cn1nnc(-c2ccc(NC(=O)c3cccnc3)cc2)n1,AC50,[9],3.95 µM (active)
O=C1CCCN1c1ccc(S(=O)(=O)Oc2cccc(Cl)c2)cc1[N+](=O)[O-],AC50,[1],1.78 µM (inconclusive)
CCCC1CCC(c2ccc(C(=O)NN)cc2)CC1 (stereo not drawn),AC50,[9],10.9 µM (active)
Cc1ccc2c(c1)N(C(=O)CCC(=O)N1CCN(c3cccc(C)c3C)CC1)CCO2,CC50,[4],5.57 µM (active)
CCOC(=O)c1[nH]c(C)c(C(=O)C2=C(O)C(=O)N(CCN3CCOCC3)C2c2cccs2)c1C (stereo not drawn),AC50,[2],14.1 µM (inconclusive)
O=C(NCc1ccco1)Nc1cccs1,AC50,[2],20 µM (inconclusive)
same,AC50,[1],14.1 µM (inconclusive)
Oc1ncnc2c1sc1nc3c(c(-c4ccc(Cl)cc4)c12)CCC3,CC50,[4],> 50 µM (active)
Cc1cccc(NC(=O)c2[nH]cnc2C(=O)NCC(=O)OC(C)(C)C)c1,CC50,[4],> 50 µM (active)
O=C(Nc1nc(-c2cc(Cl)sc2Cl)cs1)c1cccs1,AC50,[15],1.13 µM (active)
same,EC50,[17],> 50 µM (not active)
same,EC50,[18],14.2 µM (active)
same,EC50,[19],18.1 µM (active)
same,CC50,[5],25.9 µM (active)
COCCSc1nnc(NC(=O)CCS(=O)(=O)c2ccccc2)s1,EC50,[10],> 150 µM (inactive)
same,EC50,[11],3.97 µM (active)
CCOc1ccc(OCC)c(NC(=O)CSc2nc3ccccc3c(=O)n2C)c1,EC50,[6],71.4 µM (active)
same,EC50,[7],69.6 µM (active)
same,EC50,[8],29.5 µM (active)
CC(C)CCNC(=O)C(c1ccco1)N(Cc1ccc(F)cc1)C(=O)c1snc(C(N)=O)c1N (stereo not drawn),EC50,[10],26.5 µM (active)
same,EC50,[11],> 38 µM (not active)
CCOc1ncccc1C(=O)Nc1ccc(F)cc1,CC50,[4],46.3 µM (active)
C[C@@H](NC(=O)c1[nH]cnc1C(=O)N[C@@H](Cc1ccccc1)C(=O)OC(C)(C)C)c1ccccc1,AC50,[20],5.32 µM (active)
Cc1ccc(S(=O)(=O)c2nc(Nc3nccs3)sc2Cl)cc1,CC50,[5],> 40 µM (active)
COCCSc1nnc(NC(=O)C(C)(C)C)s1,AC50,[16],25.1 µM (inconclusive)
N=C(NOC(=O)C12CC3CC(CC(C3)C1)C2)c1ccccc1,EC50,[12],90.5 µM (active)
CC(C)[C@H](N)c1nnc(SCc2ccc(Cl)cc2)o1,AC50,[1],28.2 µM (inconclusive)
CCC(=O)c1ccc(OCC(O)CN2CCCCC2)cc1.Cl (stereo not drawn),AC50,[1],39.8 µM (inconclusive)
same,AC50,[3],inconclusive
CC1CCCC=CC2CC(OC(=O)CN(C)C)CC2C(O)C=CC(=O)O1 (stereo not drawn),AC50,[20],< 0.26 µM (active)
CC(C)NC(=O)C(C)n1cccc1C(=O)c1ccccc1 (stereo not drawn),AC50,[2],15.8 µM (inconclusive)
COc1ccc(C2C(C(=O)c3ccc(Cl)cc3)=C(O)C(=O)N2CCN2CCOCC2)c(OC)c1 (stereo not drawn),AC50,[2],20 µM (inconclusive)
same,AC50,[3]; read-out: AC50,39.8 µM (inconclusive)
COc1ccc(CN(C)C[C@H]2OCCCC[C@H](C)Oc3ccc(NC(=O)Nc4ccc(C(F)(F)F)cc4)cc3C(=O)N([C@H](C)CO)C[C@@H]2C)cc1,AC50,[20],10.9 µM (active)
COc1cccc(/C=N/NC(=O)CCCC(=O)NC2CCCCC2)c1,EC50,[6],> 120 µM (not active)
same,EC50,[7],15.6 µM (active)
same,EC50,[8],> 120 µM (not active)
c1ccc2nc(-c3ccncc3)ccc2c1,CC50,[4],25.4 µM (active)
O=C(Nc1cnc2ccccc2c1)c1cccc(-n2cnnn2)c1,AC50,[1],7.94 µM (inconclusive)
COc1cc(OC)c2cc(-c3ccncc3)cnc2c1,AC50,[2],0.316 µM (inconclusive)
same,AC50,[3]; read-out: AC50,31.6 µM (inconclusive)
CC1(C)C=Cc2c(ccc3c2OC[C@@H](c2ccc(O)cc2O)C3)O1 [GLABRIDIN],AC50,[15],6.05 µM (active)
same,CC50,[4],13.4 µM (active)
